Common to all, as to type: cell-based
Test [1] relates to human melanoma cells A375 (with a mutated B-RAF). Put plainly: In vitro cell proliferation assay, A375. To be noted: A-375, 72 hours, cellular ATP monitoring. The protocol:
(§1) Exponentially growing human melanoma cells A375 (with a mutated B-RAF) and human melanoma cells Mewo (with wild-type B-Raf) were seeded and incubated at 37° C. in a humidified 5% CO2 atmosphere. After 24 hours, scalar doses of the compound were added to the medium and cells oncubated for 72 hours. At the end of treatment, cells were washed and counted. Cell number was determined by a cellular adenosine triphosphate monitoring system. Cell proliferation was compared to control cells and the concentration inhibiting cell growth by 50% was calculated.

The subject of test [2] is p-MAPK (T202/Y204) in A375 human melanoma cells, having a mutated B-RAF. Put plainly: p-MAPK (T202/Y204) ArrayScan assay. The protocol:
A375 human melanoma cells, having a mutated B-RAF, are seeded in 384-well poly-lysine coated plates (Matrix) at a density of 1000 cells/well with appropriate medium supplemented with 10% FCS and incubated for 16-24 hours. Cells are treated for 1.5 or 2 hours with increasing doses of compounds (starting dose 10 μM, dilution factor 2.5). At the end of the treatment cells are fixed with p-formaldehyde 3.7% for 15-30 min, then washed twice with D-PBS ([…]) and permeabilized with D-PBS containing 0.1% Triton X-100 and 1% BSA (Sigma-Aldrich) for 15 minutes at room temperature (staining solution). […] After removal of antibody solution, the anti-mouse Cy™2-conjugated (Green) secondary antibody (Amersham) diluted 1:500 in staining solution containing […] DAPI is added. The plate is incubated for 1 hour at 37° C., washed twice and red with Cellomics' ArrayScan VTI (4 fields/well, CytoNucTrans algorithm).
The parameter “MEAN_RingAvgIntenCh2”, which measures the mean cytoplasmatic fluorescence intensity associated to p-MAPK staining, is reported as the final result.

The subject of test [3] is human melanoma cells Mewo (with wild-type B-Raf). Description: In vitro cell proliferation assay, Mewo. Particulars: 72 hours, cellular ATP monitoring. The protocol:
as §1

The mark [4] stands for this setting: A-375, A375 cells treated 1.5 or 2 hours, p-MAPK staining, MEAN_RingAvgIntenCh2, read-out: Array Scan A375 IC50.
The mark [5] stands for this setting: A-375, read-out: Array Scan A375 IC50.

Where two headings read alike, the source gives them in different places.

Turning to `O=C(Nc1ccc(Cl)cc1)Nc1cccc(-c2nn3c(c2-c2ccncc2)SCCC3)c1` [compound 1, 1-(4-chloro-phenyl)-3-[3-(3-pyridin-4-yl-6,7-dihydro-5H-pyrazolo[5,1-b][1,3]thiazin-2-yl)-phenyl]-urea], the IC50 was 2480 nM in test [1], 7370 nM in test [2] (setting [4]) and 3590 nM in test [3].
As for `Cc1ccc(NC(=O)Nc2cccc(-c3nn4c(c3-c3ccncc3)SCCC4)c2)cc1` [compound 2, 1-[3-(3-pyridin-4-yl-6,7-dihydro-5H-pyrazolo[5,1-b][1,3]thiazin-2-yl)-phenyl]-3-p-tolyl-urea], the figures for the half-inhibitory concentration (IC50) in test [1], in test [2] (setting [4]) and in test [3] were 3690 nM, 5570 nM and 7250 nM, respectively.
For `O=C(Nc1ccc(C(F)(F)F)cc1)Nc1cccc(-c2nn3c(c2-c2ccncc2)SCCC3)c1` [compound 3, 1-[3-(3-pyridin-4-yl-6,7-dihydro-5H-pyrazolo[5,1-b][1,3]thiazin-2-yl)-phenyl]-3-(4-trifluoromethyl-phenyl)-urea], in that order: 910 nM, 770 nM and 2540 nM.
As to `O=S(=O)(Nc1cccc(-c2nn3c(c2-c2ccncc2)SCCC3)c1)c1cccc(F)c1` [compound 4, 3-fluoro-N-[3-(3-pyridin-4-yl-6,7-dihydro-5H-pyrazolo[5,1-b][1,3]thiazin-2-yl)-phenyl]-benzenesulfonamide], the figures for the IC50 in test [1], in test [2] (setting [4]) and in test [3] were 7510 nM, 1620 nM and more than 10000 nM, respectively.
In the case of `O=C(Nc1ccc(C(F)(F)F)cc1)Nc1cccc(-c2nn3c(c2-c2ccncc2)SCC3)c1` [compound 5, 1-[3-(7-pyridin-4-yl-2,3-dihydro-pyrazolo[5,1-b]thiazol-6-yl)-phenyl]-3-(4-trifluoromethyl-phenyl)urea], the IC50 was determined as 430 nM in test [1], 600 nM in test [2] (setting [5]) and 2630 nM in test [3].
On to `O=C(Nc1ccc(Cl)cc1)Nc1cccc(-c2nn3c(c2-c2ccncc2)SCC3)c1` [compound 6, 1-(4-chloro-phenyl)-3-[3-(7-pyridin-4-yl-2,3-dihydro-pyrazolo[5,1-b]thiazol-6-yl)-phenyl]-urea], for which the IC50 in test [1] worked out at 2330 nM; in test [2] (setting [4]), 1380 nM; in test [3] it was 5950 nM.
`Oc1cccc(-c2nn3c(c2-c2ccncc2)SCC3)c1` [compound 7, 3-(7-pyridin-4-yl-2,3-dihydro-pyrazolo[5,1-b]thiazol-6-yl)-phenol]: the IC50 in test [1] is 950 nM; in test [2] (setting [4]), 750 nM; in test [3] it was more than 10000 nM.
Consider `Oc1cccc(-c2nn3c(c2-c2ccncc2)SCCC3)c1` [compound 8, 3-(3-pyridin-4-yl-6,7-dihydro-5H-pyrazolo[5,1-b][1,3]thiazin-2-yl)-phenol], for which the half-inhibitory concentration (IC50) in test [1] is 1510 nM; in test [2] (setting [5]) it was 2040 nM; in test [3], more than 10000 nM.
With `O=S(=O)(Nc1cccc(-c2nn3c(c2-c2ccncc2)SCCC3)c1)c1cc(F)ccc1F` [compound 9, 2,5-difluoro-N-[3-(3-pyridin-4-yl-6,7-dihydro-5H-pyrazolo[5,1-b][1,3]thiazin-2-yl)-phenyl]-benzenesulfonamide], the concentration for half-maximal inhibition (IC50) worked out at 1280 nM in test [1], 460 nM in test [2] (setting [4]) and 4290 nM in test [3].
The corresponding values for `O=S1(=O)CCn2nc(-c3cccc(O)c3)c(-c3ccncc3)c21` [compound 10, 3-(1,1-dioxo-7-pyridin-4-yl-2,3-dihydro-pyrazolo[5,1-b]thiazol-6-yl)-phenol] are 1980 nM, 620 nM and more than 10000 nM.
For `O=S(=O)(Nc1cccc(-c2nn3c(c2-c2ccncc2)SCC3)c1)c1cc(F)ccc1F` [compound 11, 2,5-difluoro-N-[3-(7-pyridin-4-yl-2,3-dihydro-pyrazolo[5,1-b]thiazol-6-yl)-phenyl]-benzenesulfonamide], in that order: 660 nM, 260 nM and more than 10000 nM.
The corresponding values for `O=C(Cc1ccc(C(F)(F)F)cc1)Nc1cccc(-c2nn3c(c2-c2ccncc2)SCCC3)c1` [compound 12, N-[3-(3-pyridin-4-yl-6,7-dihydro-5H-pyrazolo[5,1-b][1,3]thiazin-2-yl)-phenyl]-2-(4-trifluoromethyl-phenyl)-acetamide] are 3880 nM, 6390 nM and more than 10000 nM.
On to `O=S(=O)(Nc1cccc(-c2nn3c(c2-c2ccncc2)SCCC3)c1)c1ccco1` [compound 13, furan-2-sulfonic acid [3-(3-pyridin-4-yl-6,7-dihydro-5H-pyrazolo[5,1-b][1,3]thiazin-2-yl)-phenyl]-amide], for which the values for the IC50 in test [1], in test [2] (setting [4]) and in test [3] were 9280 nM, 3030 nM and more than 10000 nM, respectively.
As for `O=S(=O)(Nc1cccc(-c2nn3c(c2-c2ccncc2)SCCC3)c1)c1ccsc1` [compound 14, thiophene-3-sulfonic acid [3-(3-pyridin-4-yl-6,7-dihydro-5H-pyrazolo[5,1-b][1,3]-thiazin-2-yl)-phenyl]-amide], the IC50 in test [1] is 7070 nM; in test [2] (setting [4]), 4690 nM; in test [3] it was more than 10000 nM.
For the compound `CC(C)(C)c1ccc(NC(=O)c2cccc(-c3nn4c(c3-c3ccncc3)SCC4)c2)cc1` [compound 15, N-(4-tert-butyl-phenyl)-3-(7-pyridin-4-yl-2,3-dihydro-pyrazolo[5,1-b]thiazol-6-yl)-benzamide], the concentration for half-maximal inhibition (IC50) was 680 nM in test [1], 480 nM in test [2] (setting [4]) and 3090 nM in test [3].
The corresponding values for `NC(=O)c1csc2c(-c3ccncc3)c(-c3cccc(NS(=O)(=O)c4cc(F)ccc4F)c3)nn12` [compound 17, 6-[3-(2,5-difluoro-benzenesulfonylamino)-phenyl]-7-pyridin-4-yl-pyrazolo[5,1-b]thiazole-3-carboxylic acid amide] are 1340 nM, 1170 nM and more than 10000 nM.
For `CC(C)(C)c1ccc(NC(=O)Nc2cccc(-c3nn4c(c3-c3ccncc3)SCC4)c2)cc1` [compound 18, 1-(4-tert-butyl-phenyl)-3-[3-(7-pyridin-4-yl-2,3-dihydro-pyrazolo[5,1-b]thiazol-6-yl)-phenyl]-urea], in that order: 2160 nM, 2290 nM and more than 10000 nM.
For `O=C(Nc1ccc(C(F)(F)F)cc1)Nc1cccc(-c2nn3c(c2-c2ccncc2)[S+]([O-])CC3)c1` (stereo not drawn) [compound 19, 1-[3-(1-oxo-7-pyridin-4-yl-2,3-dihydro-pyrazolo[5,1-b]thiazol-6-yl)-phenyl]-3-(4-trifluoromethyl-phenyl)-urea], in that order: 7680 nM, 4690 nM and more than 10000 nM.
For `Oc1cccc(-c2nn3ccsc3c2-c2ccncc2)c1` [compound 20, 3-(7-pyridin-4-yl-pyrazolo[5,1-b]thiazol-6-yl)-phenol], the results for the 50% inhibitory concentration (IC50) in test [1], in test [2] (setting [4]) and in test [3] were 1170 nM, 360 nM and more than 10000 nM, respectively.
With `O=S(=O)(Nc1cccc(-c2nn3ccsc3c2-c2ccncc2)c1)c1cc(F)ccc1F` [compound 21, 2,5-difluoro-N-[3-(7-pyridin-4-yl-pyrazolo[5,1-b]thiazol-6-yl)-phenyl]-benzenesulfonamide], the IC50 in test [1] was 3130 nM; in test [2] (setting [4]), 210 nM; in test [3], more than 10000 nM.
`O=C(Nc1ccc(C(F)(F)F)cc1)Nc1cccc(-c2nn3ccsc3c2-c2ccncc2)c1` [compound 22, 1-[3-(7-pyridin-4-yl-pyrazolo[5,1-b]thiazol-6-yl)-phenyl]-3-(4-trifluoromethyl-phenyl)-urea]: the IC50 in test [1] was found to be 1030 nM; in test [2] (setting [4]) it was 440 nM; in test [3], 5410 nM.
On to `O=S(=O)(Nc1ccc(F)c(-c2nn3c(c2-c2ccncc2)SCC3)c1F)c1cc(F)ccc1F` [compound 23, N-[2,4-difluoro-3-(7-pyridin-4-yl-2,3-dihydro-pyrazolo[5,1-b]thiazol-6-yl)-phenyl]-2,5-difluoro-benzenesulfonamide], for which the 50% inhibitory concentration (IC50) in test [1] is 290 nM; in test [2] (setting [4]) it was 20 nM; in test [3], more than 10000 nM.
For `O=C(Nc1ccc(C(F)(F)F)cc1)c1cccc(-c2nn3c(c2-c2ccncc2)SCC3)c1` [compound 24, 3-(7-pyridin-4-yl-2,3-dihydro-pyrazolo[5,1-b]thiazol-6-yl)-N-(4-trifluoromethyl-phenyl)-benzamide], the figures for the IC50 in test [1], in test [2] (setting [4]) and in test [3] were 1230 nM, 1460 nM and 5090 nM, respectively.

The values above are taken from patent publication US8524707B2, “Bicyclic pyrazoles as protein kinase inhibitors” (Nerviano Medical Sciences S.r.l., priority 2008, dated 2013).
